Key:
Settings in all cases: incubation time: 72 h
BT-474 [1] = assay: normalised response (% of control), CellTox Green; higher = less cell death (100 = DMSO, 0 = benzethonium chloride kill control)
Procedure, shortened: (§1)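 In 384-well plates holding compound at 5 concentrations in 10-fold steps over a 10,000-fold range specific to each compound, breast cancer cell lines were seeded as 20 µl suspension and incubated 72 h. CellTox Green fluorescence was measured at 485/520 nm, after which CellTiter-Glo luminescence was measured following 10 min at room temperature. Plate signals were normalised to 0.1 % DMSO (100) and a positive kill control (0), and each value is the normalised signal at a single concentration.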

BT-549 [2] = assay: as above
Procedure, shortened: as §1

CAL-120 [3] = assay: as above
Procedure, shortened: as §1

CAL-148 [4] = assay: as above
Procedure, shortened: as §1

CAL-51 [5] = assay: as above
Procedure, shortened: as §1

CAL-85-1 [6] = assay: as above
Procedure, shortened: as §1

DU-4475 [7] = assay: as above
Procedure, shortened: as §1

HCC1143 [8] = assay: as above
Procedure, shortened: as §1

HCC1599 [9] = assay: as above
Procedure, shortened: as §1

HCC1937 [10] = assay: as above
Procedure, shortened: as §1

HDQ-P1 [11] = assay: as above
Procedure, shortened: as §1

Hs578T [12] = assay: as above
Procedure, shortened: as §1

MCF-10A [13] = assay: as above
Procedure, shortened: as §1

MDA-MB-231 [14] = assay: as above
Procedure, shortened: as §1

MDA-MB-436 [15] = assay: as above
Procedure, shortened: as §1

MDA-MB-453 [16] = assay: as above
Procedure, shortened: as §1

MDA-MB-468 [17] = assay: as above
Procedure, shortened: as §1

MFM-223 [18] = assay: as above
Procedure, shortened: as §1

BT-474 [19] = assay: normalised response (% of control), CellTiter-Glo; higher = more viable cells (100 = DMSO, 0 = benzethonium chloride kill control)
Procedure, shortened: as §1

BT-549 [20] = assay: as above
Procedure, shortened: as §1

CAL-120 [21] = assay: as above
Procedure, shortened: as §1

CAL-148 [22] = assay: as above
Procedure, shortened: as §1

CAL-51 [23] = assay: as above
Procedure, shortened: as §1

CAL-85-1 [24] = assay: as above
Procedure, shortened: as §1

DU-4475 [25] = assay: as above
Procedure, shortened: as §1

HCC1143 [26] = assay: as above
Procedure, shortened: as §1

HCC1599 [27] = assay: as above
Procedure, shortened: as §1

HCC1937 [28] = assay: as above
Procedure, shortened: as §1

HDQ-P1 [29] = assay: as above
Procedure, shortened: as §1

Hs578T [30] = assay: as above
Procedure, shortened: as §1

MCF-10A [31] = assay: as above
Procedure, shortened: as §1

MDA-MB-231 [32] = assay: as above
Procedure, shortened: as §1

MDA-MB-436 [33] = assay: as above
Procedure, shortened: as §1

MDA-MB-453 [34] = assay: as above
Procedure, shortened: as §1

MDA-MB-468 [35] = assay: as above
Procedure, shortened: as §1

MFM-223 [36] = assay: as above
Procedure, shortened: as §1

SK-BR-3 = assay: as above
Procedure, shortened: as §1

SMILES | normalised response (BT-474 [1]) | normalised response (BT-549 [2]) | normalised response (CAL-120 [3]) | normalised response (CAL-148 [4]) | normalised response (CAL-51 [5]) | normalised response (CAL-85-1 [6]) | normalised response (DU-4475 [7]) | normalised response (HCC1143 [8]) | normalised response (HCC1599 [9]) | normalised response (HCC1937 [10]) | normalised response (HDQ-P1 [11]) | normalised response (Hs578T [12]) | normalised response (MCF-10A [13]) | normalised response (MDA-MB-231 [14]) | normalised response (MDA-MB-436 [15]) | normalised response (MDA-MB-453 [16]) | normalised response (MDA-MB-468 [17]) | normalised response (MFM-223 [18]) | normalised response (BT-474 [19]) | normalised response (BT-549 [20]) | normalised response (CAL-120 [21]) | normalised response (CAL-148 [22]) | normalised response (CAL-51 [23]) | normalised response (CAL-85-1 [24]) | normalised response (DU-4475 [25]) | normalised response (HCC1143 [26]) | normalised response (HCC1599 [27]) | normalised response (HCC1937 [28]) | normalised response (HDQ-P1 [29]) | normalised response (Hs578T [30]) | normalised response (MCF-10A [31]) | normalised response (MDA-MB-231 [32]) | normalised response (MDA-MB-436 [33]) | normalised response (MDA-MB-453 [34]) | normalised response (MDA-MB-468 [35]) | normalised response (MFM-223 [36]) | normalised response (SK-BR-3)
CC(=O)Nc1cccc(-n2c(=O)n(C3CC3)c(=O)c3c(Nc4ccc(I)cc4F)n(C)c(=O)c(C)c32)c1 [Trametinib] (25 nM) | 102% | 93.6% | 87.6% | 108% | 113% | 66.6% | 64.6% | 116% | 105% | 124% | 92.3% | 113% | 81.3% | 66.4% | 97.2% | 111% | 103% | 101% | 73.5% | 107% | 71.7% | 90.7% | 105% | 68.9% | 0.42% | 72.5% | 101% | 81.3% | 61.2% | 83.2% | 35.7% | 72.1% | 91.2% | 111% | 88.7% | 94.6% | 102%
CC1=C(/C=C/C(C)=C/C=C/C(C)=C/C(=O)O)C(C)(C)CCC1 [Tretinoin] (1000 nM) | 99.4% | 101% | 107% | 98.5% | 99% | 99.5% | 105% | 115% | 101% | 93.8% | 91.2% | 59.5% | 80.4% | 96.5% | 96.4% | 114% | 109% | 97.5% | 97% | 101% | 101% | 78.1% | 111% | 92.2% | 102% | 96.8% | 99.3% | 97.7% | 102% | 90.7% | 82% | 96.8% | 95.6% | 97.6% | 84.6% | 93.5% | 70.7%
Oc1ncc(N(CCCl)CCCl)c(O)n1 [Uracil mustard] (1000 nM) | 101% | 103% | 106% | 103% | 104% | 115% | 105% | 117% | 96% | 102% | 113% | 107% | 102% | 107% | 98.7% | 112% | 120% | 102% | 104% | 100% | 106% | 93.9% | 113% | 99.3% | 95.4% | 101% | 108% | 93.8% | 105% | 99% | 118% | 96.5% | 106% | 104% | 104% | 98.2% | 100%
CCCCC(=O)OCC(=O)[C@]1(O)Cc2c(O)c3c(c(O)c2[C@@H](O[C@H]2C[C@H](NC(=O)C(F)(F)F)[C@H](O)[C@H](C)O2)C1)C(=O)c1c(OC)cccc1C3=O [Valrubicin] (500 nM) | 106% | 78.4% | 118% | 56.9% | 67.6% | 144% | 117% | 150% | 134% | 167% | 131% | 127% | 113% | 157% | 131% | 131% | 276% | 108% | 83.8% | 64.1% | 86.9% | 30.4% | 50.3% | 80.3% | 52.3% | 75.5% | 102% | 77.5% | 81.7% | 88.6% | 75.6% | 85.4% | 57.5% | 120% | 47.1% | 108% | 41%
CCCS(=O)(=O)Nc1ccc(F)c(C(=O)c2c[nH]c3ncc(-c4ccc(Cl)cc4)cc23)c1F [Vemurafenib] (1000 nM) | 98% | 116% | 99.7% | 101% | 82.6% | 100% | 78.9% | 91.8% | 90.8% | 108% | 73.9% | 100% | 88.2% | 97% | 65.4% | 104% | 127% | 98% | 90.8% | 93.1% | 90% | 86.4% | 88.6% | 92.3% | 35% | 95.6% | 104% | 97.3% | 94.8% | 103% | 101% | 94.3% | 94.2% | 90.7% | 86.9% | 86.4% | 79%

Source: the supplement of paper PMC4862054
